Measurements: patent US8277839B2, “Oral pharmaceutical composition of anilinopyrimidine, preparation and use thereof” (Ares Trading S.A., priority 2006, dated 2012)
Values after ≈ are worked out from the molar mass of the structure shown.

Columns and labels:
[1] = visual solubility test (apparent solubility in different excipients); type: physicochemical; conditions: for solubility: thermodynamic from solid
Method: Subsequently in order to analyze the solubility of the anilinopyrimidine of Formula (I) and to identify the preferred excipients, ten solutions of batch FD050007 and ten solution of the starting batch 61569-02 were prepared and analized with a visual solubility test.
A data summary for the anilinopyrimidine derivative of Formula (I) apparent solubility in different excipients is given in Table 2.

[2] = tested on: primary fresh cells from Acute Myeloid Leukemia (AML) patients; conditions: most primary fresh cells from AML patients; cited from earlier work
[3] = in Cremophor EL (castor oil-ethylene oxide)
[4] = in Labrafil M1944CS (oleoyl macrogol glyceride)

Row | Compound | solubility ([1]; Capmul GMO-50, oil or lipid, in Capmul GMO-50) [mg/mL] | solubility ([1]; Capmul MCM C10 (glyceril monocaprate), oil or lipid, in Capmul MCM C10 (glyceril monocaprate)) [mg/mL] | solubility ([1]; Capmul MCM-Lutrol E600 1:1, organic solvent or mixture, in Capmul MCM-Lutrol E600 1:1) [mg/mL] | solubility ([1]; Lutrol E600 (PEG 600), organic solvent or mixture, in Lutrol E600 (PEG 600)) [mg/mL] | apparent solubility [1, 3] | apparent solubility [1, 4] | apparent solubility ([1]; in Labrasol (caprylocapryoyl macrogol glyceride)) | apparent solubility ([1]; in Transcutol HP) | apparent solubility ([1]; in Vitamin E TPGS) | cell death [2] | solubility, milled versus starting batch ([1]; in particular in Capmul MCM C10, Lutrol E600 and Capmul MCM-Lutrol E600 1:1) | solubility ([1]; HP-β-CD, aqueous with cosolvent or surfactant or cyclodextrin, in HP-β-CD) [mg/mL] | solubility ([1]; Labrasol (caprylocapryoyl macrogol glyceride), oil or lipid, in Labrasol (caprylocapryoyl macrogol glyceride)) [mg/mL] | solubility ([1]; Transcutol HP, organic solvent or mixture, in Transcutol HP) [mg/mL] | apparent solubility ([1]; in Capmul GMO-50) [mg/mL] | apparent solubility ([1]; in Capmul MCM C10 (glyceril monocaprate)) [mg/mL] | apparent solubility ([1]; in Capmul MCM-Lutrol E600 1:1) [mg/mL] | apparent solubility ([1]; in Lutrol E600 (PEG 600)) [mg/mL]
1 | CC(=O)N1CCN(C(=O)c2ccc(Nc3nccc(-c4ccc(Cl)cc4)n3)cc2)CC1 [Formula 61569-02, 1-(4{4-[4-(4-Chloro-phenyl)-pyrimidin-2-ylamino]-benzoyl}-piperazin-1-yl)-ethanone] | 20.2 | 59.5 | 115 | 104 | Suspension | Suspension | Suspension | Suspension | Solid | – | – | – | – | – | – | – | – | –
2 | CC(=O)N1CCN(C(=O)c2ccc(Nc3nccc(-c4ccc(Cl)cc4)n3)cc2)CC1 [Formula (I), 1-(4{4-[4-(4-Chloro-phenyl)-pyrimidin-2-ylamino]-benzoyl}-piperazin-1-yl)-ethanone] | – | – | – | – | – | – | – | – | – | induces cell death | better solubility when milled | – | – | – | – | – | – | –
3 | CC(=O)N1CCN(C(=O)c2ccc(Nc3nccc(-c4ccc(Cl)cc4)n3)cc2)CC1 [FD050007, 1-(4{4-[4-(4-Chloro-phenyl)-pyrimidin-2-ylamino]-benzoyl}-piperazin-1-yl)-ethanone] | – | – | – | – | Suspension | Suspension | – | – | Solid | – | – | 5.75 (≈ 13.2 mM) | 26.3 (≈ 60.3 mM) | 26.2 (≈ 60.1 mM) | 19.6 | 54 | 115 | 115
